“And” between values parts separate entries of the source, which are not always exact repeats. Equal values may be shown once. Read-outs that look alike come from different tables or passages of the source.
Assays:
[1] = target: T1, full length mHCN2 (Mus musculus, UniProt O88703); settings: read-out: binding affinity BC50, cited from earlier work
T1 construct: to full length mHCN2 and ΔDE (mHCN2 1-640) mutant channels, both expressed in Xenopus oocytes; expressed in transfected cells; host or cells: Xenopus laevis oocytes (cRNA injected; pGEMHE vector); excised macropatches
T1 sequence (O88703 1-863): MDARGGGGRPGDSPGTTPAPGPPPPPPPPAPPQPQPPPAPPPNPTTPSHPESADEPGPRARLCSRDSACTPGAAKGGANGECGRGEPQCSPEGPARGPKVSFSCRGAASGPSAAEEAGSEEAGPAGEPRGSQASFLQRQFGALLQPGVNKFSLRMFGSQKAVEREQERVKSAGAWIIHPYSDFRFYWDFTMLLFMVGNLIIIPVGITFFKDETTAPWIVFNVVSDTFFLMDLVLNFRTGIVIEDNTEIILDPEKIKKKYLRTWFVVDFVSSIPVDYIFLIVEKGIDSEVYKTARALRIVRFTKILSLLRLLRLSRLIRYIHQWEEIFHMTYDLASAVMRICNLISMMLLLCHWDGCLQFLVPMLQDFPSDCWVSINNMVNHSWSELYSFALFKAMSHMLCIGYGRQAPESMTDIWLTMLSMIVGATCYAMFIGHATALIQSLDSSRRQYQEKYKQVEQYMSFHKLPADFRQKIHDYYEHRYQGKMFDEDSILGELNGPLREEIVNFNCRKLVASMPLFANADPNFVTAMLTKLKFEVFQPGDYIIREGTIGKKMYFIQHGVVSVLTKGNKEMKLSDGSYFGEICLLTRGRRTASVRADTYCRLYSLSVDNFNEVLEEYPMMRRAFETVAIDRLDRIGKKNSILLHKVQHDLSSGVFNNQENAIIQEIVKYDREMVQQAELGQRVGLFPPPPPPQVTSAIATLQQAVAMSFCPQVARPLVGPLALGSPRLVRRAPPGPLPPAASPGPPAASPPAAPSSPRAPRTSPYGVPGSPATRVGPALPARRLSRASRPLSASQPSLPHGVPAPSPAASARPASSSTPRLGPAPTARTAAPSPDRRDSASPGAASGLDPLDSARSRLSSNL

[2] = target: T2, ΔDE (mHCN2 1-640) (Mus musculus, UniProt O88703); test: Confocal patch-clamp fluorometry (cPCF), oocyte macropatches; type: binding; settings: for factor of relative fluorescence increase: individual patches
T2 construct: full length mHCN2 and ΔDE (mHCN2 1-640) mutant channels, both expressed in Xenopus oocytes; expressed in transfected cells; host or cells: Xenopus laevis oocytes (cRNA injection, pGEMHE)
T2 sequence (O88703 1-640): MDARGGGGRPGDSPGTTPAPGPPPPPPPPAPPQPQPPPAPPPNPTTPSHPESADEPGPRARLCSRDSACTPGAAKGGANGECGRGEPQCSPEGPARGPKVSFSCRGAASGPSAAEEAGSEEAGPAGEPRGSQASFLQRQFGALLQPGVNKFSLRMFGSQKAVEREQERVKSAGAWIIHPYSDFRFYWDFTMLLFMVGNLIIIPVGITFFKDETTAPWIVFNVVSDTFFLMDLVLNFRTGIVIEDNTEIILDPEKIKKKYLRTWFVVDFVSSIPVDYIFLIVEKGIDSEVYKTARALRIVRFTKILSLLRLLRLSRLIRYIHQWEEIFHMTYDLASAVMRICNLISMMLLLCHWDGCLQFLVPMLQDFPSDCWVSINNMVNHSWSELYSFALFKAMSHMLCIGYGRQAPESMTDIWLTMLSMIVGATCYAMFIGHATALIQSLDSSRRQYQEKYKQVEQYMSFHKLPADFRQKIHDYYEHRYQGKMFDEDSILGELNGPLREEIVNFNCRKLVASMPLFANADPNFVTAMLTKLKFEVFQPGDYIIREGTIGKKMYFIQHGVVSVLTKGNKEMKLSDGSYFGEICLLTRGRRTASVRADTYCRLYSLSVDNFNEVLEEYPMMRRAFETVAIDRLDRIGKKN
Description: (§1) We tested this hypothesis using confocal patch-clamp fluorometry (cPCF)[8], measuring current activation and ligand binding in parallel.
(§2) Oocytes were surgically removed from adult females of the South African clawed frog Xenopus laevis under anesthesia (0.3% MS-222 (tricaine methanesulfonate) (Pharmaq, Fordingbridge, UK)). The surgery procedures were carried out in accordance with the German Animal Welfare Act with the approval of the Thuringian State Office for Consumer Protection on 30.08.2013 and 09.05.2018. The oocytes were treated with collagenase A (3 mg/mL; Roche Diagnostics (Grenzach-Wyhlen, Germany)) for 105 min in Ca^2+-free Barth solution containing 82.5 mM NaCl, 2 mM KCl, 1 mM MgCl2, and 5 mM HEPES (pH 7.5). Oocytes of stages IV and V were manually dissected and injected with cRNA-encoding mHCN2 channels of Mus musculus or constructs carrying a point mutation. After injection with cRNA, the oocytes were cultured at 18 °C for 2–10 days in Barth solution containing 84 mM NaCl, 1 mM KCl, 2.4 mM NaHCO3, 0.82 mM MgSO4, 0.41 mM CaCl2, 0.33 mM Ca(NO3)2, 7.5 mM Tris, cefuroxime, and penicillin/streptomycin (pH 7.4). The procedures had approval from the authorized animal ethics committee of the Friedrich Schiller University Jena. The methods were performed according to approved guidelines. Oocytes harvested in our laboratory were complemented with ready-to-use oocytes purchased from EcoCyte Bioscience (Dortmund, Germany).
(§3) The recordings were performed with an LSM 710 confocal microscope (Carl Zeiss, Jena, Germany) and were triggered by the ISO3 software (MFK, Niedernhausen, Germany). To distinguish the fluorescence of the nonbound f1cAMP from that of the bound f1cAMP, a second, chemically related dye, DY647 (Dyomics, Jena, Germany), was also added to the bath solution. The 543- and 633-nm lines of an He-Ne laser were used to excite f1cAMP and DY647, respectively. For quantifying the bound f1cAMP, the fluorescence intensities of the red and the green channels were corrected for small offsets, and the fluorescence in the red channel was scaled to the fluorescence in the green channel in the bath. The difference between the measured green and the scaled red profile for each pixel of the confocal image represents the fraction of the fluorescence signal originating from the bound f1cAMP. The free patch membrane (patch dome) only was used to quantify binding by setting a mask at a region of interest. The fluorescence, F, was averaged over all pixels inside this mask and normalized in each patch concerning the fluorescence at saturating (f1cAMP) and full channel activation (−130 mV), Fmax. The recording rate of the confocal images was 10 Hz.

[3] = target: T1, full length mHCN2; test: as above; type: binding; settings: for factor of relative fluorescence increase: individual patches
Description: as §1, §2, §3

## 8-Cy3B-AHT-cAMP [f1cAMP]
[1]; activated mHCN2 channels
  Kd: 250 nM
[1]; non-activated mHCN2 channels
  Kd: 980 nM
[2]; 0.25 µM f1cAMP, n = 4
  mean increase of fluorescence intensity upon activation, F–130 mV/F−30mV: 2.1 ± 0.3
[2]; fcAMP 0.25 µM
  factor of relative fluorescence increase: 1.6 and 2.4 and 1.7 and 2.6
[2]; fcAMP 2.5 µM
  factor of relative fluorescence increase: 1.1 and 1.3 and 1.2
[3]; 0.25 µM f1cAMP, n = 9
  mean increase of fluorescence intensity upon activation, F–130 mV/F−30mV: 1.6 ± 0.1
[3]; 2.5 µM f1cAMP, n = 7
  F-130 mV/F−30mV: 1.1 ± 0.04
[3]; fcAMP 0.25 µM
  factor of relative fluorescence increase: 1.7 and 1.6 and 1.9 and 2.2 and 1.3 and 1.2
[3]; fcAMP 2.5 µM
  factor of relative fluorescence increase: 0.9 and 1.1 and 1.3 and 1.0 and 1.2

Source: publication PMC10825183 (Nature Communications, 2024)
